Here are results for 1 compound from PMC11096237, “Utilizing a structure-based virtual screening approach to discover potential LSD1 inhibitors” (Journal of Cancer Research and Clinical Oncology, 2024).

This test deals with T1, LSD1 (Homo sapiens, UniProt O60341).
T1 construct: gene KDM1A
The test can be described thus: Amplex Red/HRP-coupled fluorescence demethylase assay with purified recombinant LSD1 and H3K4me2. The test is classed as biochemical. An excerpt: Amplex Red/HRP-coupled fluorescence demethylase assay with purified recombinant LSD1 and H3K4me2 on LSD1 | […]

As usually defined, the IC50 is the concentration that inhibits the measured activity by half. For the compound `O=C(CNC(=O)Cc1ccccc1)NCC(=O)OCC(=O)c1ccc(OCc2ccccc2)cc1` [ZINC10039815], the IC50 came out at 99 nM.
